{"source": "paper PMC5218480", "about": "(PLoS ONE, 2017)", "system": "MV-4-11 cells", "experiment": "Gene expression microarray analysis (Affymetrix PrimeView) and GSEA", "assay_type": "cell-based, human", "design": "RFU PODN (11730768_x_at) / Fold change /veh PODN (11730768_x_at) / RFU LINC00158 (11744669_a_at) / Fold change /veh LINC00158 (11744669_a_at) / RFU DUSP10 (11751237_a_at) / Fold change /veh DUSP10 (11751237_a_at) / RFU ID3 (11757404_x_at) / Fold change /veh ID3 (11757404_x_at) / RFU PLEKHG5 (11737974_s_at) / Fold change /veh PLEKHG5 (11737974_s_at) / RFU LRRC4B (11730491_at) / Fold change /veh LRRC4B (11730491_at) / RFU GIMAP4 (11747438_a_at) / Fold change /veh GIMAP4 (11747438_a_at) / RFU KRT8 (11758183_x_at) / Fold change /veh KRT8 (11758183_x_at) / RFU CNN1 (11734310_a_at) / Fold change /veh CNN1 (11734310_a_at) / RFU VPS37D (11726825_at) / Fold change /veh VPS37D (11726825_at) / RFU C10orf10 (11716522_x_at) / Fold change /veh C10orf10 (11716522_x_at) / RFU KIR2DL2 /// KIR2DL4 /// KIR2DL5A /// KIR2DL5B /// KIR2DS1 /// KIR2DS2 /// KIR2DS3 /// KIR2DS4 /// KIR3DL3 /// KIR3DL3 /// KIR3DS1 (11738374_at) / Fold change /veh KIR2DL2 /// KIR2DL4 /// KIR2DL5A /// KIR2DL5B /// KIR2DS1 /// KIR2DS2 /// KIR2DS3 /// KIR2DS4 /// KIR3DL3 /// KIR3DL3 /// KIR3DS1 (11738374_at) / RFU C1QL1 (11718748_at) / Fold change /veh C1QL1 (11718748_at) / RFU TMPRSS4 (11747572_a_at) / Fold change /veh TMPRSS4 (11747572_a_at) / RFU HAMP (11756126_x_at) / Fold change /veh HAMP (11756126_x_at) / RFU RNFT2 (11725882_a_at) / Fold change /veh RNFT2 (11725882_a_at) / RFU NR4A2 (11747474_a_at) / Fold change /veh NR4A2 (11747474_a_at) / RFU ABCC12 (11746883_a_at) / Fold change /veh ABCC12 (11746883_a_at) / RFU TMEM136 (11760407_x_at) / Fold change /veh TMEM136 (11760407_x_at) / RFU CLDN22 /// WWC2 (11732394_at) / Fold change /veh CLDN22 /// WWC2 (11732394_at) / RFU HLA-DPB1 (11760878_x_at) / Fold change /veh HLA-DPB1 (11760878_x_at) / RFU SPINT1 (11716480_a_at) / Fold change /veh SPINT1 (11716480_a_at) / RFU GAP43 (11754022_s_at) / Fold change /veh GAP43 (11754022_s_at) / RFU A4GNT (11735810_at) / Fold change /veh A4GNT (11735810_at) / RFU PRB3 (11715151_x_at) / Fold change /veh PRB3 (11715151_x_at) / RFU TUBB4B (11761932_at) / Fold change /veh TUBB4B (11761932_at) / RFU CAPN14 (11732068_a_at) / Fold change /veh CAPN14 (11732068_a_at) / RFU TMCC2 (11721928_a_at) / Fold change /veh TMCC2 (11721928_a_at) / RFU IRGQ (11745062_a_at) / Fold change /veh IRGQ (11745062_a_at) / RFU FAM174B (11720279_a_at) / Fold change /veh FAM174B (11720279_a_at) / RFU TMPRSS4 (11748680_a_at) / Fold change /veh TMPRSS4 (11748680_a_at) / RFU FAM212B (11763350_a_at) / Fold change /veh FAM212B (11763350_a_at) / RFU PLEKHG5 (11743358_a_at) / Fold change /veh PLEKHG5 (11743358_a_at) / RFU ZSCAN30 (11745921_a_at) / Fold change /veh ZSCAN30 (11745921_a_at) / RFU CMKLR1 (11741424_a_at) / Fold change /veh CMKLR1 (11741424_a_at) / RFU LOC101060620 /// MAPK8IP1 (11723275_at) / Fold change /veh LOC101060620 /// MAPK8IP1 (11723275_at) / RFU SPTSSB (11747773_x_at) / Fold change /veh SPTSSB (11747773_x_at) / RFU PRSS12 (11739890_at) / Fold change /veh PRSS12 (11739890_at) / RFU BIN1 (11741810_x_at) / Fold change /veh BIN1 (11741810_x_at) / RFU WNT11 (11732464_a_at) / Fold change /veh WNT11 (11732464_a_at) / RFU C10orf10 (11716521_a_at) / Fold change /veh C10orf10 (11716521_a_at) / RFU C5orf56 (11738089_at) / Fold change /veh C5orf56 (11738089_at) / RFU CYB561 (11721691_x_at) / Fold change /veh CYB561 (11721691_x_at) / RFU ANKRD19P (11752326_a_at) / Fold change /veh ANKRD19P (11752326_a_at) / RFU OR2T12 /// OR2T33 /// OR2T8 (11738714_s_at) / Fold change /veh OR2T12 /// OR2T33 /// OR2T8 (11738714_s_at) / RFU VCAN (11748164_a_at) / Fold change /veh VCAN (11748164_a_at) / RFU JSRP1 (11732532_at) / Fold change /veh JSRP1 (11732532_at) / RFU KRTAP10-11 (11738290_x_at) / Fold change /veh KRTAP10-11 (11738290_x_at) / RFU MYO3A (11730013_a_at) / Fold change /veh MYO3A (11730013_a_at) / RFU EBF3 (11725865_a_at) / Fold change /veh EBF3 (11725865_a_at) / RFU CAMK2N1 (11719241_x_at) / Fold change /veh CAMK2N1 (11719241_x_at) / RFU C5orf56 (11738088_a_at) / Fold change /veh C5orf56 (11738088_a_at) / RFU OLFML3 (11715873_a_at) / Fold change /veh OLFML3 (11715873_a_at) / RFU LOC100653217 /// NTM (11731650_a_at) / Fold change /veh LOC100653217 /// NTM (11731650_a_at) / RFU MAPK11 (11762145_a_at) / Fold change /veh MAPK11 (11762145_a_at) / RFU FIZ1 (11724087_x_at) / Fold change /veh FIZ1 (11724087_x_at) / RFU OASL (11726364_x_at) / Fold change /veh OASL (11726364_x_at) / RFU SOX15 (11748057_x_at) / Fold change /veh SOX15 (11748057_x_at) / RFU CD79A (11719716_a_at) / Fold change /veh CD79A (11719716_a_at) / RFU HIST1H1D (11736915_at) / Fold change /veh HIST1H1D (11736915_at) / RFU CASKIN2 (11723855_a_at) / Fold change /veh CASKIN2 (11723855_a_at) / RFU LOC730098 (11760151_x_at) / Fold change /veh LOC730098 (11760151_x_at) / RFU OR4N2 (11742367_at) / Fold change /veh OR4N2 (11742367_at) / RFU PRRT2 (11749266_a_at) / Fold change /veh PRRT2 (11749266_a_at) / RFU SNX32 (11753110_a_at) / Fold change /veh SNX32 (11753110_a_at) / RFU CDHR5 (11726645_a_at) / Fold change /veh CDHR5 (11726645_a_at) / RFU RCAN1 (11760418_a_at) / Fold change /veh RCAN1 (11760418_a_at) / RFU FAM167A (11723789_a_at) / Fold change /veh FAM167A (11723789_a_at) / RFU FAM26E (11764081_at) / Fold change /veh FAM26E (11764081_at) / RFU ISYNA1 (11749810_s_at) / Fold change /veh ISYNA1 (11749810_s_at) / RFU ACY1 (11761880_at) / Fold change /veh ACY1 (11761880_at) / RFU 11764098_at / Fold change /veh 11764098_at / RFU SAMD14 (11745864_x_at) / Fold change /veh SAMD14 (11745864_x_at) / RFU NPB (11741838_a_at) / Fold change /veh NPB (11741838_a_at) / RFU TMPRSS6 (11731388_a_at) / Fold change /veh TMPRSS6 (11731388_a_at) / RFU KRTAP10-2 (11738614_at) / Fold change /veh KRTAP10-2 (11738614_at) / RFU ARHGAP8 /// PRR5-ARHGAP8 (11727945_x_at) / Fold change /veh ARHGAP8 /// PRR5-ARHGAP8 (11727945_x_at) / RFU KRTAP5-7 /// NADSYN1 (11734609_at) / Fold change /veh KRTAP5-7 /// NADSYN1 (11734609_at) / RFU RASL12 (11751679_a_at) / Fold change /veh RASL12 (11751679_a_at) / RFU CDKN2B (11736163_a_at) / Fold change /veh CDKN2B (11736163_a_at) / RFU PRF1 (11729649_at) / Fold change /veh PRF1 (11729649_at) / RFU, ZNF638 /// ZNF638-IT1 / Fold change vs veh, ZNF638 /// ZNF638-IT1 / RFU, PANK3 / Fold change vs veh, PANK3 / RFU, SH3YL1 / Fold change vs veh, SH3YL1 / RFU, ZEB2 / Fold change vs veh, ZEB2 / RFU, NRIP1 / Fold change vs veh, NRIP1 / RFU, PTTG1IP / Fold change vs veh, PTTG1IP / RFU, CAPN2 / Fold change vs veh, CAPN2 / RFU, MED14 / Fold change vs veh, MED14 / RFU, SNORA58 / Fold change vs veh, SNORA58 / RFU, C1orf63 / Fold change vs veh, C1orf63 / RFU, LRRFIP1 / Fold change vs veh, LRRFIP1 / RFU, NDUFAF7 / Fold change vs veh, NDUFAF7 / RFU, SLC12A2 / Fold change vs veh, SLC12A2 / RFU, IBTK / Fold change vs veh, IBTK / RFU, ESF1 / Fold change vs veh, ESF1 / Fold change vs veh, TMEM50B / RFU, TAOK1 / Fold change vs veh, TAOK1 / RFU, ACBD3 / Fold change vs veh, ACBD3 / RFU, TMA16 / Fold change vs veh, TMA16 / RFU, RWDD3 / Fold change vs veh, RWDD3 / RFU, BCAT1 / Fold change vs veh, BCAT1 / RFU, EDEM3 / Fold change vs veh, EDEM3 / RFU, TMEM33 / Fold change vs veh, TMEM33 / RFU, WDR75 / Fold change vs veh, WDR75 / RFU, AHCTF1 / Fold change vs veh, AHCTF1 / RFU, TFRC / Fold change vs veh, TFRC / RFU, ZDHHC17 / Fold change vs veh, ZDHHC17 / RFU, NOM1 / Fold change vs veh, NOM1 / RFU, ARL8B / Fold change vs veh, ARL8B / RFU, ZBTB11 / Fold change vs veh, ZBTB11 / RFU, TAMM41 / Fold change vs veh, TAMM41 / RFU, KIAA1704 /// LOC100996395 / Fold change vs veh, KIAA1704 /// LOC100996395 / RFU, ING1 / Fold change vs veh, ING1 / RFU, TRMT61B / Fold change vs veh, TRMT61B / RFU, FUBP3 / Fold change vs veh, FUBP3 / RFU, TP53 / Fold change vs veh, TP53 / RFU, TNKS2 / Fold change vs veh, TNKS2 / RFU, ZFP14 / Fold change vs veh, ZFP14 / RFU, ACTR2 / Fold change vs veh, ACTR2 / RFU, PPP3R1 / Fold change vs veh, PPP3R1 / RFU, PIK3R1 / Fold change vs veh, PIK3R1 / RFU, HNRNPA1 / Fold change vs veh, HNRNPA1 / RFU, RNF170 / Fold change vs veh, RNF170 / RFU, ZNF28 / Fold change vs veh, ZNF28 / RFU, RNGTT / Fold change vs veh, RNGTT / RFU, OGT / Fold change vs veh, OGT / RFU, BRD1 / Fold change vs veh, BRD1 / RFU, MARS / Fold change vs veh, MARS / RFU, ZNF655 / Fold change vs veh, ZNF655 / RFU, FAHD1 / Fold change vs veh, FAHD1 / RFU, BDP1 / Fold change vs veh, BDP1 / RFU, LRRCC1 / Fold change vs veh, LRRCC1 / RFU, ARID1A / Fold change vs veh, ARID1A / RFU, ZNF146 / Fold change vs veh, ZNF146 / RFU, ZNF330 / Fold change vs veh, ZNF330 / RFU, GPN3 / Fold change vs veh, GPN3 / RFU, C9orf123 / Fold change vs veh, C9orf123 / RFU, N4BP2L2 / Fold change vs veh, N4BP2L2 / RFU, ARFIP1 / Fold change vs veh, ARFIP1 / RFU, FAM179B / Fold change vs veh, FAM179B / RFU, BCL10 / Fold change vs veh, BCL10 / RFU, UHRF1BP1L / Fold change vs veh, UHRF1BP1L / RFU, BET1 / Fold change vs veh, BET1 / RFU, CNOT2 / Fold change vs veh, CNOT2 / RFU, ZNF268 / Fold change vs veh, ZNF268 / Fold change vs veh, ZNF507 / RFU, DGCR2 / Fold change vs veh, DGCR2 / RFU, WDSUB1 / Fold change vs veh, WDSUB1 / Fold change vs veh, HSP90B1 /// MIR3652 / RFU, ADSS / Fold change vs veh, ADSS / RFU, GK / Fold change vs veh, GK / RFU, ZNF148 / Fold change vs veh, ZNF148 / RFU, TAF9 / Fold change vs veh, TAF9 / RFU, SLC1A5 / Fold change vs veh, SLC1A5 / RFU, SLMO2 / Fold change vs veh, SLMO2 / RFU, ABCC4 / Fold change vs veh, ABCC4 / RFU, LOC101060439 /// RAP1B / Fold change vs veh, LOC101060439 /// RAP1B / RFU, RFX7 / Fold change vs veh, RFX7 / RFU, GTPBP10 / Fold change vs veh, GTPBP10 / RFU, CNEP1R1 / Fold change vs veh, CNEP1R1 / RFU, BIVM-ERCC5 /// ERCC5 / Fold change vs veh, BIVM-ERCC5 /// ERCC5 / RFU, ILF3 / Fold change vs veh, ILF3 / RFU 11762660_at / Fold change /veh 11762660_at / RFU VCAN (11757783_s_at) / Fold change /veh VCAN (11757783_s_at) / RFU DDX43 (11728927_at) / Fold change /veh DDX43 (11728927_at) / RFU KRT8 (11758188_x_at) / Fold change /veh KRT8 (11758188_x_at) / RFU NKD1 (11759106_at) / Fold change /veh NKD1 (11759106_at) / RFU SRD5A1 (11742802_a_at) / Fold change /veh SRD5A1 (11742802_a_at) / RFU TPSAB1 /// TPSB2 (11721975_s_at) / Fold change /veh TPSAB1 /// TPSB2 (11721975_s_at) / RFU GSTM3 (11746129_a_at) / Fold change /veh GSTM3 (11746129_a_at) / RFU IL23R (11737362_x_at) / Fold change /veh IL23R (11737362_x_at) / RFU TMEM51 (11727254_a_at) / Fold change /veh TMEM51 (11727254_a_at) / RFU PIWIL2 (11732686_x_at) / Fold change /veh PIWIL2 (11732686_x_at) / RFU ORM1 (11744905_x_at) / Fold change /veh ORM1 (11744905_x_at) / RFU CCDC152 (11743942_at) / Fold change /veh CCDC152 (11743942_at) / RFU ECM1 (11717891_a_at) / Fold change /veh ECM1 (11717891_a_at) / RFU IL23R (11748794_a_at) / Fold change /veh IL23R (11748794_a_at) / RFU TNFAIP8L3 (11732012_x_at) / Fold change /veh TNFAIP8L3 (11732012_x_at) / RFU MBOAT4 (11741988_at) / Fold change /veh MBOAT4 (11741988_at) / RFU 11764193_at / Fold change /veh 11764193_at / RFU TMEM53 (11763286_at) / Fold change /veh TMEM53 (11763286_at) / RFU MAGEB2 (11727129_at) / Fold change /veh MAGEB2 (11727129_at) / RFU TMEM200A (11744735_a_at) / Fold change /veh TMEM200A (11744735_a_at) / RFU CCDC152 (11751479_a_at) / Fold change /veh CCDC152 (11751479_a_at) / RFU FAM211A (11726209_a_at) / Fold change /veh FAM211A (11726209_a_at) / RFU RGS16 (11746705_a_at) / Fold change /veh RGS16 (11746705_a_at) / RFU VCAN (11755009_s_at) / Fold change /veh VCAN (11755009_s_at) / RFU RHOB (11743442_s_at) / Fold change /veh RHOB (11743442_s_at) / RFU RGS16 (11720943_a_at) / Fold change /veh RGS16 (11720943_a_at) / RFU RGS16 (11720944_at) / Fold change /veh RGS16 (11720944_at) / RFU, VPS4B / Fold change vs veh, VPS4B / RFU, CREB1 / Fold change vs veh, CREB1 / RFU, DNAJC13 / Fold change vs veh, DNAJC13 / RFU, GNAQ / Fold change vs veh, GNAQ / RFU, CDK5R1 / Fold change vs veh, CDK5R1 / RFU, ZRANB3 / Fold change vs veh, ZRANB3 / RFU, CUL4A / Fold change vs veh, CUL4A / RFU, CCNY / Fold change vs veh, CCNY / RFU, UFL1 / Fold change vs veh, UFL1 / RFU, COG3 / Fold change vs veh, COG3 / RFU, DIAPH2 / Fold change vs veh, DIAPH2 / RFU, SKA2 / Fold change vs veh, SKA2 / RFU, AFF3 / Fold change vs veh, AFF3 / RFU, LMF1 / Fold change vs veh, LMF1 / RFU, IPO11 / Fold change vs veh, IPO11 / RFU, DFFB / Fold change vs veh, DFFB / RFU, FOXP1 / Fold change vs veh, FOXP1 / RFU, CARD8 / Fold change vs veh, CARD8 / RFU, STRN3 / Fold change vs veh, STRN3 / RFU, ADK / Fold change vs veh, ADK / RFU, RASSF2 / Fold change vs veh, RASSF2 / RFU, WIPF1 / Fold change vs veh, WIPF1 / RFU, LARP1B / Fold change vs veh, LARP1B / RFU, RASA1 / Fold change vs veh, RASA1 / RFU, RB1 / Fold change vs veh, RB1 / RFU, PPFIA1 / Fold change vs veh, PPFIA1 / RFU, MAT2A / Fold change vs veh, MAT2A / RFU, CCT5 / Fold change vs veh, CCT5 / RFU, WDR92 / Fold change vs veh, WDR92 / RFU, CUX1 / Fold change vs veh, CUX1 / RFU, TTC7A / Fold change vs veh, TTC7A / RFU, TMEM135 / Fold change vs veh, TMEM135 / RFU, DEPTOR / Fold change vs veh, DEPTOR / RFU, CPM / Fold change vs veh, CPM / RFU, DNAJB6 / Fold change vs veh, DNAJB6 / RFU, CACNA2D3 / Fold change vs veh, CACNA2D3 / RFU, DTX4 / Fold change vs veh, DTX4 / RFU, TFCP2 / Fold change vs veh, TFCP2 / RFU, GMCL1 /// GMCL1P1 / Fold change vs veh, GMCL1 /// GMCL1P1 / RFU, AEBP2 / Fold change vs veh, AEBP2 / RFU, SNHG1 /// SNORD22 /// SNORD25 /// SNORD26 /// SNORD27 /// SNORD28 /// SNORD29 /// SNORD31 / Fold change vs veh, SNHG1 /// SNORD22 /// SNORD25 /// SNORD26 /// SNORD27 /// SNORD28 /// SNORD29 /// SNORD31 / Fold change (Aza/veh), C12orf56 (ProbeSet 11735607_a_at) / Fold change (ACY-1035/veh), C12orf56 (ProbeSet 11735607_a_at) / Fold change (Aza/veh), FGFR1OP (ProbeSet 11751329_s_at) / Fold change (ACY-1035/veh), FGFR1OP (ProbeSet 11751329_s_at) / Fold change (Aza/veh), VPS36 (ProbeSet 11739960_a_at) / Fold change (ACY-1035/veh), VPS36 (ProbeSet 11739960_a_at) / RFU SYPL1 (11715823_x_at) / Fold change /veh SYPL1 (11715823_x_at) / RFU IGFBP7 (11715501_s_at) / Fold change /veh IGFBP7 (11715501_s_at) / RFU REEP3 (11722064_at) / Fold change /veh REEP3 (11722064_at) / RFU IGLL1 (11728026_x_at) / Fold change /veh IGLL1 (11728026_x_at): dose or concentration left out as unconfirmed", "conditions": "MV-4-11 cells, 48 hours", "data": [{"compound": "Nc1ccc(-c2cccs2)cc1NC(=O)c1ccc2c(c1)cc(C1CC1)n2CCN1CCOCC1", "note": "[ACY-1035]", "values": [{"measurement": "Fold change /veh TMPRSS4 (11747572_a_at)", "result": 1.09}]}]}
